SMILES strings stand for the structures.

Broadly, the IC50 is the concentration at which inhibition is half-maximal.

The target of this test is 5-hydroxytryptamine receptor 7 (Homo sapiens, UniProt P34969). In words: Radiolabel Binding Assay: A stock concentration of 5 nM [3H]LSD (lysergic acid diethyl amide) is prepared in 50 mM Tris-HCl, 10 mM MgCl2, 1 mM EDTA, pH 7.4 (Assay Buffer). Aliquots (50 μl) of radioligand are dispensed into the wells of a 96-well plate containing 100 μl of Assay Buffer. Duplicate 50-μl aliquots of the compound of the disclosure test and chlorpromazine positive control reference compound serial dilutions are added.Membrane fractions of cells expressing recombinant 5HT7 receptors (50 μL) are dispensed into each well. The membranes are prepared from stably tranfected cell lines expressing 5HT7 receptors cultured on 10-cm plates by harvesting PBS-rinsed monolayers, resuspending and lysing in chilled, hypotonic 50 mM Tris-HCl, pH 7.4, centrifuging at 20,000×g, decanting the supernatant and storing at −80° C.; the membrane preparations are resuspended in 3 ml of chilled Assay Buffer and homogenized by several passages through a 26 gauge needle before using in the assay.
Sequence of 5-hydroxytryptamine receptor 7 (P34969 whole entry): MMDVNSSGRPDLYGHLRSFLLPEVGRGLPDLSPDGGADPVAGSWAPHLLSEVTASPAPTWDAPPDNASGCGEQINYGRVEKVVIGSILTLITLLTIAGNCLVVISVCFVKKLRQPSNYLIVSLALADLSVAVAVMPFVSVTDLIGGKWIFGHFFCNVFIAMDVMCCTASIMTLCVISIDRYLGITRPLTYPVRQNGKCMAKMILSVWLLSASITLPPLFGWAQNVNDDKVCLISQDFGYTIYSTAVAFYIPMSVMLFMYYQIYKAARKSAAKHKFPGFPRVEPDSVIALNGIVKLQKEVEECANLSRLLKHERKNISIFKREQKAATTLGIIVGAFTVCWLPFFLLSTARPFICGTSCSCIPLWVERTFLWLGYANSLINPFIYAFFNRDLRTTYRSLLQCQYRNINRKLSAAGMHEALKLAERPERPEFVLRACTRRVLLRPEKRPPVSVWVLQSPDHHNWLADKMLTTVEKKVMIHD
For the molecule `COc1ccccc1N1CCN(CCC2CC3(CCCCC3)C(=O)O2)CC1` (stereo not drawn), the IC50 stood at 72 nM.

Regarding `Cc1ccc(N2CCN(CCCC3CC(c4ccccc4)(c4ccccc4)C(=O)O3)CC2)cc1` (stereo not drawn), the half-inhibitory concentration (IC50) came out at 146 nM.

As for `CCC1(CC)CC(CCN2CCN(C3CCCCC3)CC2)OC1=O` (stereo not drawn), the IC50 is 3760 nM.

Regarding `CC(C)c1ccccc1N1CCN(CCC2CC3(CCCC3)C(=O)O2)CC1` (stereo not drawn), the IC50 was 24 nM.

As for `Cc1ccc(N2CCN(CCC3CC(c4ccccc4)(c4ccccc4)C(=O)O3)CC2)cc1` (stereo not drawn), the concentration for half-maximal inhibition (IC50) worked out at 145 nM.

Turning to `CCC1(CC)CC(CCN2CCN(c3ccc(C#N)cc3)CC2)OC1=O` (stereo not drawn), the IC50 turned out to be 134 nM.

For the molecule `O=C1OC(CCN2CCN(c3ccccc3)CC2)CC12CCCCC2` (stereo not drawn), the half-inhibitory concentration (IC50) is 33 nM.

`CCC1(CC)CC(CCN2CCN(c3ccccc3)CC2)OC1=O` (stereo not drawn): the half-inhibitory concentration (IC50) amounted to 21 nM.

For `N#Cc1ccc(N2CCN(CCC3CC4(CCCCC4)C(=O)O3)CC2)nc1` (stereo not drawn), the half-inhibitory concentration (IC50) was determined as 1520 nM.

For `CCC1(CC)CC(CCN2CCN(C(c3ccccc3)c3ccccc3)CC2)OC1=O` (stereo not drawn), the IC50 was found to be 83 nM.

Regarding `CCC1(CC)CC(CCN2CCN(c3ccc(O)cc3)CC2)OC1=O` (stereo not drawn), the IC50 is 89 nM.

In the case of `CCC1(CC)CC(CCN2CCN(c3ccccc3OC)CC2)OC1=O` (stereo not drawn), the IC50 stood at 118 nM.

For `CC(C)(C)c1ccccc1N1CCN(CCC2CC3(CCCC3)C(=O)O2)CC1` (stereo not drawn), the IC50 was 1920 nM.

For the molecule `CCC1(CC)CC(CCN2CCN(c3ccc(C)cc3C)CC2)OC1=O` (stereo not drawn), the half-inhibitory concentration (IC50) was determined as 363 nM.

Regarding `CCC1(CC)CC(CCN2CCN(c3cccc(O)c3)CC2)OC1=O` (stereo not drawn), the IC50 came to 324 nM.

Regarding `CCC1(CC)CC(CCN2CCN(c3ccc(C(O)(c4ccccc4)c4ccccc4)cc3)CC2)OC1=O` (stereo not drawn), the IC50 worked out at 3160 nM.

With `O=C1OC(CCN2CCN(c3ccc(C(F)(F)F)cc3)CC2)CC12CCCCC2` (stereo not drawn), the IC50 is 183 nM.

Regarding `O=C1OC(CCN2CCN(c3cccnc3)CC2)CC12CCCCC2` (stereo not drawn), the IC50 amounted to 749 nM.

`O=C1OC(CCN2CCN(c3ccc(C(F)(F)F)cn3)CC2)CC12CCCCC2` (stereo not drawn): the 50% inhibitory concentration (IC50) was 254 nM.

In the case of `COc1cccc(N2CCN(CCC3CC4(CCCCC4)C(=O)O3)CC2)c1` (stereo not drawn), the IC50 came to 56 nM.

As for `CCC1(CC)CC(CCN2CCc3ccccc3C2)OC1=O` (stereo not drawn), the IC50 worked out at 13 nM.

On to `CCC1(CC)CC(CCN2CCN(c3ccc([N+](=O)[O-])cc3)CC2)OC1=O` (stereo not drawn), for which the IC50 amounted to 54 nM.

Take `CCC1(CC)CC(CCN2CCN(c3c(C)cccc3C)CC2)OC1=O` (stereo not drawn): the concentration for half-maximal inhibition (IC50) was determined as 1380 nM.

For `O=C1OC(CCN2CCN(c3ccccn3)CC2)CC12CCCCC2` (stereo not drawn), the 50% inhibitory concentration (IC50) stood at 44 nM.

With `CCC1(CC)CC(CCN2CCN(c3ccc(N)cc3)CC2)OC1=O` (stereo not drawn), the concentration for half-maximal inhibition (IC50) was 471 nM.

As for `CCC1(CC)CC(CCN2CCN(c3ccccc3C)CC2)OC1=O` (stereo not drawn), the half-inhibitory concentration (IC50) worked out at 104 nM.

`CCC1(CC)CC(CCN2CCN(c3ccccc3O)CC2)OC1=O` (stereo not drawn): the IC50 came to 156 nM.

Consider `CCC1(CC)CC(CCN2CCN(c3cccc(OC)c3)CC2)OC1=O` (stereo not drawn), for which the 50% inhibitory concentration (IC50) was 165 nM.

These data come from ChEMBL document CHEMBL5726571, “5-hydroxytryptamine receptor 7 activity modulators and their method of use” (2017).
